Source: PubChem BioAssay AID248 (DTP/NCI, 2004)
Values joined by “and” are separate entries in the source; they are usually repeats but may differ in a detail not shown here. Equal entries are not always repeated. Toxic doses and inconclusive results are not listed. Rule as the data show it: active = T/C of 150% or more; inactive = T/C below 125%.

Test system: L1210 leukemia ip in BDF1 mice, survival T/C
Assay: NCI In Vivo Anticancer Drug Screen. Data for tumor model L1210 Leukemia (intraperitoneal) in B6D2F1 (BDF1) mice
Details: endpoint: mean survival time, higher = longer survival
In short: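 Antitumor effect is assessed in tumor-bearing animals. Survival in the compound arm is compared with a vehicle-dosed control arm and expressed as their quotient.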

[1] = dose: 100.0 mg/kg/injection, schedule: Q04DX003 (ip), vehicle: saline
[2] = dose: 200.0 mg/kg/injection, schedule: Q04DX003 (ip), vehicle: saline
[3] = dose: 100.0 mg/kg/injection, schedule: Q01DX009 (ip), vehicle: Klucel (hydroxypropylcellulose) (HPC)
[4] = dose: 200.0 mg/kg/injection, schedule: Q01DX009 (ip), vehicle: Klucel (hydroxypropylcellulose) (HPC)
[5] = dose: 100.0 mg/kg/injection, schedule: Q04DX002 (ip), vehicle: Klucel (hydroxypropylcellulose) (HPC)
[6] = dose: 200.0 mg/kg/injection, schedule: Q04DX002 (ip), vehicle: Klucel (hydroxypropylcellulose) (HPC)
[7] = dose: 100.0 mg/kg/injection, schedule: Q04DX002 (ip), vehicle: saline
[8] = dose: 100.0 mg/kg/injection, schedule: Q01DX001 (ip), vehicle: saline
[9] = dose: 200.0 mg/kg/injection, schedule: Q01DX001 (ip), vehicle: saline
[10] = dose: 400.0 mg/kg/injection, schedule: Q01DX001 (ip), vehicle: saline

Measured: T/C

CN1C=CC(=Cc2ccccc2)C=C1
inactive: dose: 12.5 mg/kg/injection, schedule: Q04DX002 (ip), vehicle: Klucel (hydroxypropylcellulose) (HPC) 90 % of control | dose: 25.0 mg/kg/injection, schedule: Q04DX002 (ip), vehicle: Klucel (hydroxypropylcellulose) (HPC) 107 % of control | dose: 50.0 mg/kg/injection, schedule: Q04DX002 (ip), vehicle: Klucel (hydroxypropylcellulose) (HPC) 107 % of control

CC(=O)/C=C/c1ccccc1
inactive: dose: 100.0 mg/kg/injection, schedule: Q01DX001 (ip), vehicle: gum acacia 91 % of control | dose: 200.0 mg/kg/injection, schedule: Q01DX001 (ip), vehicle: gum acacia 105 % of control | dose: 400.0 mg/kg/injection, schedule: Q01DX001 (ip), vehicle: gum acacia 97 % of control

CCCCCCCCCCCCN=C(N)C(N)=NCCCCCCCCCCCC
inactive: dose: 100.0 mg/kg/injection, schedule: Q04DX002 (ip), vehicle: other 108 % of control | dose: 200.0 mg/kg/injection, schedule: Q04DX002 (ip), vehicle: other 96 % of control | dose: 400.0 mg/kg/injection, schedule: Q04DX002 (ip), vehicle: other 87 % of control

Cc1cc(NS(=O)(=O)c2ccc(N)cc2)sn1
inactive: [1] 87 % of control | [2] 92 % of control | dose: 400.0 mg/kg/injection, schedule: Q04DX003 (ip), vehicle: saline 97 % of control

COc1c(NC(=O)Nc2ccc(SC)cc2)cccc1[N+](=O)[O-]
inactive: [3] 89 % of control | [4] 98 % of control | dose: 400.0 mg/kg/injection, schedule: Q01DX009 (ip), vehicle: Klucel (hydroxypropylcellulose) (HPC) 93 % of control

NC(=O)Nc1ccc(Br)cc1Br
inactive: [5] 102 % of control | [6] 94 % of control

CCOC(=O)c1ccc(NC(=O)c2cccc(F)c2)cc1
inactive: [7] 91 % of control | dose: 200.0 mg/kg/injection, schedule: Q04DX002 (ip), vehicle: saline 105 % of control | dose: 400.0 mg/kg/injection, schedule: Q04DX002 (ip), vehicle: saline 109 % of control

CC(=O)c1cc(CN(CCCl)CCCl)c(O)c(CN(CCCl)CCCl)c1O
inactive: dose: 3.1 mg/kg/injection, schedule: Q01DX009 (ip), vehicle: Klucel (hydroxypropylcellulose) (HPC) 111 % of control | dose: 5.5 mg/kg/injection, schedule: Q01DX009 (ip), vehicle: Klucel (hydroxypropylcellulose) (HPC) 114 % of control | dose: 6.2 mg/kg/injection, schedule: Q01DX009 (ip), vehicle: Klucel (hydroxypropylcellulose) (HPC) 111 % of control | dose: 8.3 mg/kg/injection, schedule: Q01DX009 (ip), vehicle: Klucel (hydroxypropylcellulose) (HPC) 120 % of control | dose: 15.0 mg/kg/injection, schedule: Q01DX001 (ip), vehicle: carboxymethylcellulose (CMC) 122 % of control | dose: 23.0 mg/kg/injection, schedule: Q01DX001 (ip), vehicle: carboxymethylcellulose (CMC) 122 % of control | dose: 30.0 mg/kg/injection, schedule: Q01DX009 (ip), vehicle: carboxymethylcellulose (CMC) 108 % of control | dose: 53.0 mg/kg/injection, schedule: Q01DX001 (ip), vehicle: carboxymethylcellulose (CMC) 122 % of control

CCN(CC)CCCC(C)Nc1cccc2c1C(=O)c1cccc(NC(C)CCCN(CC)CC)c1C2=O (stereo unspecified)
inactive: dose: 12.5 mg/kg/injection, schedule: Q01DX009 (ip), vehicle: saline 107 % of control | dose: 25.0 mg/kg/injection, schedule: Q01DX009 (ip), vehicle: saline 96 % of control and 118 % of control | dose: 25.0 mg/kg/injection, schedule: Q04DX002 (ip), vehicle: saline 98 % of control and 95 % of control | dose: 50.0 mg/kg/injection, schedule: Q04DX002 (ip), vehicle: saline 92 % of control and 98 % of control | [7] 102 % of control and 92 % of control

Cc1cccc(C[Si](C)C)c1
inactive: [8] 95 % of control and 104 % of control | [9] 124 % of control | [10] 93 % of control and 98 % of control

C=CCc1cc2c(C)cc(=O)oc2c(C)c1OC(C)=O
inactive: dose: 100.0 mg/kg/injection, schedule: Q01DX009 (ip), vehicle: gum acacia 100 % of control | dose: 100.0 mg/kg/injection, schedule: Q04DX003 (ip), vehicle: gum acacia 98 % of control | dose: 200.0 mg/kg/injection, schedule: Q01DX009 (ip), vehicle: gum acacia 96 % of control | dose: 200.0 mg/kg/injection, schedule: Q04DX003 (ip), vehicle: gum acacia 103 % of control | dose: 400.0 mg/kg/injection, schedule: Q01DX009 (ip), vehicle: gum acacia 91 % of control | dose: 400.0 mg/kg/injection, schedule: Q04DX003 (ip), vehicle: gum acacia 90 % of control

C/C=C/C(=O)C12CCCCCCCCCC(=C1N1CCCCC1)C(=O)CC2C (stereo unspecified)
inactive: [8] 93 % of control | dose: 100.0 mg/kg/injection, schedule: Q01DX009 (ip), vehicle: saline 90 % of control | [9] 98 % of control | dose: 200.0 mg/kg/injection, schedule: Q01DX009 (ip), vehicle: saline 92 % of control | [10] 98 % of control | dose: 400.0 mg/kg/injection, schedule: Q01DX009 (ip), vehicle: saline 98 % of control

CCCN(CCC)CC(C)O (stereo unspecified)
inactive: [1] 93 % of control | [2] 97 % of control

C/C(Cc1ccccc1)=N/N(C)C
inactive: dose: 100.0 mg/kg/injection, schedule: Q01DX009 (ip), vehicle: saline with Tween-80 113 % of control | dose: 100.0 mg/kg/injection, schedule: Q04DX003 (ip), vehicle: saline with Tween-80 102 % of control | dose: 200.0 mg/kg/injection, schedule: Q01DX009 (ip), vehicle: saline with Tween-80 104 % of control | dose: 200.0 mg/kg/injection, schedule: Q04DX003 (ip), vehicle: saline with Tween-80 95 % of control | dose: 400.0 mg/kg/injection, schedule: Q04DX003 (ip), vehicle: saline with Tween-80 95 % of control

COc1ccc2c(c1)C(CC(=O)O)=CC2
inactive: dose: 50.0 mg/kg/injection, schedule: Q01DX001 (ip), vehicle: saline 100 % of control | [8] 96 % of control | [9] 105 % of control | [10] 107 % of control

O=C1OC2C(O)C(CO)OC2n2c1cc(=O)[nH]c2=O (stereo unspecified)
inactive: dose: 100.0 mg/kg/injection, schedule: Q01DX005 (ip), vehicle: saline 111 % of control | dose: 200.0 mg/kg/injection, schedule: Q01DX005 (ip), vehicle: saline 104 % of control

O=C(Cc1cccc2ccccc12)N/N=C/c1cccc([N+](=O)[O-])c1
inactive: [3] 88 % of control | [5] 93 % of control | [4] 93 % of control | [6] 89 % of control | dose: 400.0 mg/kg/injection, schedule: Q04DX002 (ip), vehicle: Klucel (hydroxypropylcellulose) (HPC) 96 % of control

Nc1ccc(SS(N)(=O)=O)cc1
inactive: [8] 98 % of control | [9] 98 % of control

Cc1cc(C)c(O)c(N=Nc2ccccc2)c1
inactive: dose: 100.0 mg/kg/injection, schedule: Q04DX003 (ip), vehicle: saline sonified 95 % of control | dose: 200.0 mg/kg/injection, schedule: Q04DX003 (ip), vehicle: saline sonified 93 % of control | dose: 400.0 mg/kg/injection, schedule: Q04DX003 (ip), vehicle: saline sonified 91 % of control

CC([NH-])C(=O)[O-].[K+].[O]=[Co][O-] (stereo unspecified)
inactive: dose: 75.0 mg/kg/injection, schedule: Q01DX001 (ip), vehicle: saline 107 % of control

COc1ccccc1CN1CCCN(Cc2ccccc2OC)C1c1cccnc1
inactive: dose: 50.0 mg/kg/injection, schedule: Q01DX001 (ip), vehicle: carboxymethylcellulose (CMC) 112 % of control | dose: 100.0 mg/kg/injection, schedule: Q01DX001 (ip), vehicle: carboxymethylcellulose (CMC) 108 % of control | dose: 200.0 mg/kg/injection, schedule: Q01DX001 (ip), vehicle: carboxymethylcellulose (CMC) 106 % of control | dose: 400.0 mg/kg/injection, schedule: Q01DX001 (ip), vehicle: carboxymethylcellulose (CMC) 108 % of control
